From patent US20090325862A1, “Histone Deacetylase Inhibitors for the Treatment of Neurodegeneration” (priority 2006, published 2009)
Like-named read-outs stand apart in the source and are kept apart here.

Experiments:
[1] = tested on: acetylated histones in the brain; conditions: see WO2003083067; cited from earlier work
[2] = target: T1, recombinant human HDAC3 enzyme (HDAC3(DAD) enzyme complex) (Homo sapiens, UniProt O15379); assay: HDAC3 assay (Fluor-de-Lys fluorescence); assay type: biochemical; conditions: HDAC Class I; read-out: IC50 Inhibition, HDAC3
T1 construct: made in house; host or cells: mammalian cells
Method: (§1) The final concentration in the assay is 20 μM.
(§2) The final concentration in the assay is 1-2 nM.

HDAC6 = target: T2, HDAC6 (Homo sapiens, UniProt Q9UBN7); assay: cell-free, isoform selective HDAC enzyme assay, HDAC6; assay type: biochemical
T2 sequence (Q9UBN7 1-1215): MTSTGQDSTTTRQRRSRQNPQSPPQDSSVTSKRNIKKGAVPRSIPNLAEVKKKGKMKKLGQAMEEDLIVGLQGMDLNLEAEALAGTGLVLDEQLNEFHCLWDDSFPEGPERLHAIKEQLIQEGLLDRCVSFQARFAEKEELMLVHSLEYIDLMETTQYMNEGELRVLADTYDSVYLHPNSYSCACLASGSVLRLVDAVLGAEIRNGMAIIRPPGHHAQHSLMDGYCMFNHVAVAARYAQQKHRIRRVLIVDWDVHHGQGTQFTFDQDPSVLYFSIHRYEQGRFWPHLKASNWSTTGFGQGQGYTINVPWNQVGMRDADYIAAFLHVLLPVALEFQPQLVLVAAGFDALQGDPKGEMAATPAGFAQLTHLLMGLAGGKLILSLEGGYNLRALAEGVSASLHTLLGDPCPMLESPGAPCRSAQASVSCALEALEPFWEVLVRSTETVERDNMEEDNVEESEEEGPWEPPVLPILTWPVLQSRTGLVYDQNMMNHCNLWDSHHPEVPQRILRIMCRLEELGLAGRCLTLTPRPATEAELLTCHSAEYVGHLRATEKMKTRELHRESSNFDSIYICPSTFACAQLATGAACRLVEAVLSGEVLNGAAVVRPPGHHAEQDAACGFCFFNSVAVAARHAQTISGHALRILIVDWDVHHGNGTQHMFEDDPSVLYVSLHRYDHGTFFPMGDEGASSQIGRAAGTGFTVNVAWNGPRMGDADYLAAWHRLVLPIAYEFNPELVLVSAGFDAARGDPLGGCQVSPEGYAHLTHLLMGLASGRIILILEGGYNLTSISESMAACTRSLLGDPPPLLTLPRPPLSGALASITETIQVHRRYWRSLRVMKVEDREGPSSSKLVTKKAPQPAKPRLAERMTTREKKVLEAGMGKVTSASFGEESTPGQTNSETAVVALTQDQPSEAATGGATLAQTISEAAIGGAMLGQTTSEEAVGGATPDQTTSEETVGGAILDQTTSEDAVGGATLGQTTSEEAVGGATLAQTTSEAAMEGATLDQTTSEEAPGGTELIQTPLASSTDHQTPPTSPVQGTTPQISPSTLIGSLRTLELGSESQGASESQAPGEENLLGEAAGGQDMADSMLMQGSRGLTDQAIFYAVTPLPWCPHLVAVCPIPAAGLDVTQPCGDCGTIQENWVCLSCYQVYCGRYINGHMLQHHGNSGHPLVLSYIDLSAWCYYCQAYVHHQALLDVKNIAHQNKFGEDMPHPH

[3] = target: T3, recombinant human HDAC1 enzyme (Homo sapiens, UniProt Q13547); assay: HDAC1 assay (Fluor-de-Lys fluorescence); assay type: biochemical; conditions: HDAC Class I; read-out: IC50 Inhibition, HDAC1
T3 construct: made in house; host or cells: mammalian cells
Method: as §1
The HDAC1 enzyme is diluted in assay buffer prior to each use from a fresh aliquot of enzyme.
as §2

human HDAC8 enzyme = target: T4, human HDAC8 enzyme (Homo sapiens, UniProt Q9BY41); assay: HDAC8 assay (Fluor-de-Lys-HDAC8 fluorescence); assay type: biochemical
T4 construct: full length (starting from amino acid 1 to 377+ linker IEGRGS+6 His); made in house; host or cells: E. coli BL21 codon plus
T4 sequence (Q9BY41 1-377): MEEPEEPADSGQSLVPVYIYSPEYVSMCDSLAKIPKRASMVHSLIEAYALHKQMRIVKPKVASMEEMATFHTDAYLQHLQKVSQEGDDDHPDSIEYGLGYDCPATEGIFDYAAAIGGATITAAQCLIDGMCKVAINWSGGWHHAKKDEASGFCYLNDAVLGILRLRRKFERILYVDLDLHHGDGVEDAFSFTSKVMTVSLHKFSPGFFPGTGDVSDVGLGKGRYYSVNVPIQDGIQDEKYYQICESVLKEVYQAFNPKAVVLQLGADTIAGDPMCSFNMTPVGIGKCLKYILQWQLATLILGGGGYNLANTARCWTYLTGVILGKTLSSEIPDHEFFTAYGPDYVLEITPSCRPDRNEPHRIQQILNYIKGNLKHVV
Method: The HDAC8 assay is used to measure inhibitory activity of compounds against the human HDAC8 enzyme. The assay may be performed in 96 well or 384 well microtiter plates by pre-incubating serial dilutions of compounds with a fixed concentration of HDAC8 enzyme and then adding a diacetylated peptide-containing substrate/developer that fluoresces upon deacetylation. The deacetylase reaction is performed at 37° C. for 60 min and stopped by addition of the developer solution.
Reagents of the HDAC Fluorescent Activity Assay are purchased from BioMol Research Laboratories (Plymouth Meeting, Pa.), and include the Fluor-de-Lys™-HDAC8 Substrate/DeveloperII System. The reagents include the fluorescent substrate as a 5 mM stock solution, the and the DeveloperII Concentrate.
TSA is provided as a 10 mM stock solution in 100% DMSO.
The final concentration in the assay is 70 μM.
Test compounds are prepared as a 10×5% DMSO solution in distilled water. The final DMSO concentration in the reaction is 0.5%.
The experiment is performed in a 96-well microplate (Matrix Screenmates white), 50 ul volume, according to the following steps:
1) Add 5 ul of DMSO/compound solution
2) Add 40 ul of HDAC8 enzyme in assay buffer
4) Start the reaction by adding 5 ul of the 1 mM Substrate Solution
5) Incubate 1 h at 37° C. […]
8) Measure the fluorescence at Ex.360 nM and Em.460 nM […]

SIRT1 = target: T5, SIRT1 (Homo sapiens, UniProt Q96EB6); assay: cell-free, isoform selective HDAC enzyme assay, SIRT1; assay type: biochemical; conditions: HDAC Class III; read-out: IC50 Inhibition, SIRT1
T5 sequence (Q96EB6 1-747): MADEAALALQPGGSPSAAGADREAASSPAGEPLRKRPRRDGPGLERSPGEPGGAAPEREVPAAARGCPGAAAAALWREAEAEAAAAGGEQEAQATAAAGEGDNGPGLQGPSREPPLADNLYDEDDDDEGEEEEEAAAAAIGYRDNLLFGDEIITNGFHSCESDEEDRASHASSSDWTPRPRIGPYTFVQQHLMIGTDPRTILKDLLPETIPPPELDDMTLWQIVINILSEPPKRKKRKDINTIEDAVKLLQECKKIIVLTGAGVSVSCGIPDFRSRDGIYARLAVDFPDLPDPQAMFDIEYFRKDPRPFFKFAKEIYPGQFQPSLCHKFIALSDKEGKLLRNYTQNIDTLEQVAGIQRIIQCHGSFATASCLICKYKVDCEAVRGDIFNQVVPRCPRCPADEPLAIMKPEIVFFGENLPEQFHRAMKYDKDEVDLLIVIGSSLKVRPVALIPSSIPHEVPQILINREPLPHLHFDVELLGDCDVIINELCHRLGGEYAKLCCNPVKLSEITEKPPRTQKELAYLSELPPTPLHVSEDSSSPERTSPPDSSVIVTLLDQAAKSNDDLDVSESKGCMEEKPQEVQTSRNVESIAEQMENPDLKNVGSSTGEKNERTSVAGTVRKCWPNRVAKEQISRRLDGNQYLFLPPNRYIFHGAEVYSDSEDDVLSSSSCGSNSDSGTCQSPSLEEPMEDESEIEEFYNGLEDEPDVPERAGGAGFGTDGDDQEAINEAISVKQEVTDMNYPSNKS
Method: The following pharmaceutically active compounds, all of which are taught in the prior art, were assessed for the inhibition of various HDAC subtypes the preceding cell-free, isoform selective HDAC enzyme assays: […]

HDAC4 = HDAC4 (Homo sapiens, UniProt P56524); assay: cell-free, isoform selective HDAC enzyme assay, HDAC4; assay type: biochemical; conditions: HDAC Class IIa; read-out: IC50 Inhibition, HDAC4
Sequence of HDAC4 (P56524 whole entry, species assumed, canonical isoform): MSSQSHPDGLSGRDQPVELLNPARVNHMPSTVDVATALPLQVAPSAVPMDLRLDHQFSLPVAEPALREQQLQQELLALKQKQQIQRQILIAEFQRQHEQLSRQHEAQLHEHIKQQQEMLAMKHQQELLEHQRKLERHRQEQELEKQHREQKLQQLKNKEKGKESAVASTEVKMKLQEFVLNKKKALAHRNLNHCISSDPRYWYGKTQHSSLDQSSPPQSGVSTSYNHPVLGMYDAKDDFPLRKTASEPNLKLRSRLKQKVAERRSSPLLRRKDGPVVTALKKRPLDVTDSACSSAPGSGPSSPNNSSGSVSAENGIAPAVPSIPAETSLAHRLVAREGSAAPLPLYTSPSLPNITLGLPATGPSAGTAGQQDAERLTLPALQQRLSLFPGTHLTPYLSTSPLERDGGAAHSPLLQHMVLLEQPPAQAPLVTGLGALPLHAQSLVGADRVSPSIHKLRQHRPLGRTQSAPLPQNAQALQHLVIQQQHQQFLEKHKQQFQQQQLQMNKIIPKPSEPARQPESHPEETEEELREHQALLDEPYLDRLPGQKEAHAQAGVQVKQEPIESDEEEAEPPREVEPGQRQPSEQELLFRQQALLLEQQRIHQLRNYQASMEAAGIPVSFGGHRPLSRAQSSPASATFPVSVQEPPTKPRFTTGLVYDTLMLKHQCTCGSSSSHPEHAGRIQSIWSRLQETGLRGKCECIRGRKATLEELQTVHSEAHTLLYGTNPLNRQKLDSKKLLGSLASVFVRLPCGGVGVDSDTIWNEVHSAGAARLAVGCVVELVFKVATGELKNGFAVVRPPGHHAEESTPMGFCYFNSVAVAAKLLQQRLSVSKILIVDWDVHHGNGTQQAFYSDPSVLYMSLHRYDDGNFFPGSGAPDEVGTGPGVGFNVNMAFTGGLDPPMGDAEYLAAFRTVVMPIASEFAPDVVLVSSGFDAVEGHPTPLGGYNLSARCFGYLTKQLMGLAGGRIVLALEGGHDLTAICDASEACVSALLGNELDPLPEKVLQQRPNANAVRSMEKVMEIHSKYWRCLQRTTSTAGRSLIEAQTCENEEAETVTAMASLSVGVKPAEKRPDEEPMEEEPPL

T3 sequence (Q13547 whole entry): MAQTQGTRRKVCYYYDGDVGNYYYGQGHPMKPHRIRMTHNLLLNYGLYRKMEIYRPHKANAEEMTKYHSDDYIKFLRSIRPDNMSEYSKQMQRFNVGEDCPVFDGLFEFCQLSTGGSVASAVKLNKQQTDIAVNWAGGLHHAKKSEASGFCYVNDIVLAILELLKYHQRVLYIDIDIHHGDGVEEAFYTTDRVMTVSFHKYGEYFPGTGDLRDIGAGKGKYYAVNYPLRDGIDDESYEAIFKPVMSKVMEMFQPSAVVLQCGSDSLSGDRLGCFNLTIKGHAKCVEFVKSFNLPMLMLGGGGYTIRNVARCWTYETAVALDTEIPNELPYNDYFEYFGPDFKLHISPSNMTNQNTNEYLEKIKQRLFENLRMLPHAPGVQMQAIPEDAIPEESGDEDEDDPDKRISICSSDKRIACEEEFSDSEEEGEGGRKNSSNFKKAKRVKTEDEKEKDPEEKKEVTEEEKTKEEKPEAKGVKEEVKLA
T1 sequence (O15379 whole entry): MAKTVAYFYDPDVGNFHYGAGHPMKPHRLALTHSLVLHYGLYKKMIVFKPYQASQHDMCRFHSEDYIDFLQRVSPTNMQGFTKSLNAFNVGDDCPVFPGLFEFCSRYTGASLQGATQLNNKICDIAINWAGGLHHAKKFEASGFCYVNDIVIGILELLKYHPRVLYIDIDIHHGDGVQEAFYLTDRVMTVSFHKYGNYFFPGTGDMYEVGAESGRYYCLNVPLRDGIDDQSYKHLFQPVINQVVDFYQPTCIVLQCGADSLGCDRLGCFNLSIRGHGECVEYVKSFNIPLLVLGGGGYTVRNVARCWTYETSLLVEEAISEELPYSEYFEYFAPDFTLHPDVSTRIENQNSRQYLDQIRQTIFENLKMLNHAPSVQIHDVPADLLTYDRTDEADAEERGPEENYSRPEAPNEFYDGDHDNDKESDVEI
T1 sequence (Q9Y618 389-480 partner limits assumed): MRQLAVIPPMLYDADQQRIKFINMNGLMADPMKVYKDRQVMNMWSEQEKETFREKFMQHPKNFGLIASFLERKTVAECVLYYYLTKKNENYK

IC50 [2] | IC50 (HDAC6; HDAC Class IIb, read-out: IC50 Inhibition, HDAC6) | IC50 [3] | potency at HDAC 8 relative to HDAC1 and HDAC3 (human HDAC8 enzyme; HDAC 8 potency similar to HDAC1 and HDAC3) | IC50 (human HDAC8 enzyme; HDAC Class I, read-out: IC50 Inhibition, HDAC8) | IC50 (SIRT1) | IC50 (HDAC4) | IC50 (HDAC6) | SMILES | accumulation of acetylated histones in the brain [1] | crossing of the blood-brain barrier [1]
 |  |  |  |  |  |  |  | O=C(CCCCCCC(=O)Nc1ccccc1)NO [SAHA, suberoylanilide hydroxamic acid] | cause accumulation of acetylated histones in the brain | cross the blood-brain barrier
36 µM | > 50 µM | 10 µM | ≤ 5 fold | 31 µM | > 50 µM | > 50 µM |  | CCCCCC[C@@H](CCC)C(=O)O [Arundic acid, (2R)-2-propyloctanoic acid] |  | 
 |  |  |  |  |  | > 25 µM | > 5000 µM | CCCC(CCC)C(=O)O [Valproic acid, 2-propylpentanoic acid] |  | 
